Patent US7226598B2, “Peptide inhibitors of HIV entry” (priority 1998, dated 2007)
pIC50: −log10 of the molar value. Like-named read-outs stand apart in the source and are kept apart here. Marks after values point to notes of the source that are not given here.

Key:
[1] = system: HIV-1
Procedure: HIV Infectivity Assay. Inhibitory activity of IQN17 and derivatives was determined in an HIV luciferase assay (Chen et al., 1994). Specifically, virus was made by cotransfecting 293T cells with an HIV-1 genome containing a frame-shift mutation in env and luciferase replacing the nef gene (NL43LucR-E-) along with pCMVHXB2, an expression vector with the HXB2 gp160 gene. The resultant virus is only viable for one round of infection since its genome lacks the envelope gene. The cellular debris was removed by low-speed centrifugation. The remaining viral supernatant was used to infect HOS-CD4/Fusion cells (N. Landau, National Institutes of Health AIDS Reagent Program) in the presence of the potentially inhibitory peptides. Two days post infection, the cells were lysed and luciferase activity was monitored on a Wallac AutoLumat LB953 luminometer (Gaithersburg, Md.). IC50s (the peptide concentration at which half of the viral infection is inhibited) were calculated by fitting the data to a Langmuir equation [y=k/(1+[peptide]/IC50)], where y=luciferase activity and k is a scaling constant.

[2] = Circular dichroism (helicity); format: physicochemical; conditions: for CD minimum at 222 nm: 10 μM; for θ222 nm: 20 μM solution of peptide in PBS (legend of Table 1); for helicity: at 20 μM
Procedure: Circular Dichroism. All CD measurements were performed on an Aviv 62 DS cirucular dichroism spectrometer. […] The mean residue ellipticity (θ) was calculated by dividing the raw signal by peptide concentration (M), pathlength (mm) and number of amino acids. Percent helicity was calculated according to Chen et al. (Biochemistry, 13, 1974, p3350). Thermal denaturation scans of 10 μM peptide solutions in PBS were recorded at 222 nm. The peptide was heated at two degree intervals starting at 4° C., with an equilibration time of 1.5 minutes and an averaging time of 60 seconds.

[3] = Thermal denaturation followed by CD at 222 nm; format: physicochemical
Procedure: Circular Dichroism. All CD measurements were performed on an Aviv 62 DS cirucular dichroism spectrometer. Standard scans were performed on 10 μM solutions of peptide in PBS (50 mM sodium phosphate, 150 mM sodium chloride [pH 7.4]) from 200 to 260 nm in a 1 cm pathlength cuvette with a 5 second averaging time. The mean residue ellipticity (θ) was calculated by dividing the raw signal by peptide concentration (M), pathlength (mm) and number of amino acids. Percent helicity was calculated according to Chen et al. (Biochemistry, 13, 1974, p3350). Thermal denaturation scans of 10 μM peptide solutions in PBS were recorded at 222 nm. The peptide was heated at two degree intervals starting at 4° C., with an equilibration time of 1.5 minutes and an averaging time of 60 seconds.

[4] = Sedimentation equilibrium (analytical ultracentrifugation); format: physicochemical
Procedure: Sedimentation Equilibrium. All measurements were recorded on a Beckman XL-A analytical ultracentrifuge equipped with an An-60 Ti rotor. Lyophilized peptide was resuspended in water, and the peptide concentration was determined (Edelhoch, 1967). The solution was diluted to 100–200 μM and then dialized overnight against PBS. Following dialysis, the concentration was redetermined and the appropriate dilutions were made, using the dialysis buffer. The samples were centrifuged at speeds ranging from 19,000 to 25,000 RPM.

[5] = system: HIV, modified to contain a luciferase reporter gene; format: cell-based; conditions: HOS cells expressing CD4 and coreceptor, 6 hours with virus, 48 hours more; read-out: IC50 of inhibition of luciferase activity
Procedure: HIV, modified to contain a luciferase reporter gene, is mixed with HOS cells expressing CD4 and coreceptor in the presence of diluted protein for 6 hours at 37° C. […] The virus solution is replaced, and the HOS culture is incubated 48 hours more in fresh media. Luciferase activity is measured in a luminometer.

[6] = Solubility of the peptide (observation)
[7] = system: syncytia formation between HELA cells expressing CD4 and coreceptor and CHO cells expressing gp160; assay: Cell/cell fusion (syncytia) assay; format: cell-based, HIV; conditions: HELA CD4/coreceptor + CHO gp160/Tat, 8 to 24 hours; read-out: IC50 of inhibition of syncytia formation
Procedure: Assays were carried out to assess the ability of IQN17 to interact with the C-region of gp41 and inhibit function of the fusion protein. This inhibition of membrane fusion by IQN17 and IQN23 and GCN4-pIQI was assessed using a cell based assay. Proteins IQN17, IQN23 and GCN4-pIQI are serially diluted in modified DMEM media with 5% FCS and aliquoted into slide chambers. HELA cells (4×10^4) expressing CD4 and coreceptor and containing a βgalactosidase gene under the control of the Tat promoter are added. CHO cells (2×10^4) expressing gp160 (precursor protein to gp120/gp41) and Tat are also added. The 400 μl miniculture is incubated at 37° for 8 to 24 hours; fused cells (syncytia) will transcribe and translate β-galactosidase. The cells are fixed in gluteraldehyde and exposed to X-gal/Fe solution for one hour. Syncytia that contain P-galactosidase turn blue-green.

[8] = Thermal denaturation followed by CD at 222 nm; format: physicochemical; conditions: in 2 M GuHCl
[9] = read-out: IC50 (concentration at which half of viral infectivity is inhibited), Table 1
[10] = read-out: IC50 for viral infectivity
[11] = midpoint of thermal denaturation, 10 μM peptide in PBS
[12] = 20 μM peptide in PBS, 3.0 = discrete trimer

Substance: EIARIKKLLQLTVWGIKQLQARIL [IQ8N17]
- pIC50 [1, 9]: ~5.00

Substance: Ac-KIKKIENEIARIKKLLQLTVWGIKQLQARIL-NH2 [II15N17]
- pIC50 [1, 9]: ~5.52
- pIC50 [1, 10]: ~5.52
- CD minimum at 222 nm [2]: ~−33,000 deg cm^2 dmol^−1
- θ222 nm [2]: ~−33,000 deg cm^2 dmol^−1
- Melting Temperature [3, 11]: ~76 °C
- Mobs/Mcalc [4, 12]: 2.64
- melting point: ~ 76 °C

Substance: Ac-RMKQIEDKIEEIESKQKKIENEIARIKKLIEAQQHLLQLTVWGIKQLQARIL-NH2 [IQN23]
- pIC50 [5]: ~7.10
- gain in inhibitory activity relative to IQN17 ([1]; gp41 residues increased from 17): ~6 fold
- pIC50 [1, 9]: ~7.52
- pIC50 [1, 10]: ~7.52
- Mobs/Mcalc [4, 12]: 3.29
- Mobs/Mcalc ([4]; at 20 μM): 3.3

Substance: Ac-KIEEIESKIKKIENEIARIKKLLQLTVWGIKQLQARIL-NH2 [II22N17]
- pIC50 [1, 9]: ~6.77
- pIC50 [1, 10]: ~6.77
- CD minimum at 222 nm [2]: ~−41,000 deg cm^2 dmol^−1
- θ222 nm [2]: ~−41,000 deg cm^2 dmol^−1
- Melting Temperature ([3]; at 10 μM): > 100 °C
- Melting Temperature [3, 11]: >100 °C
- Mobs/Mcalc [4, 12]: 3.02
- melting point: > 100 °C

Substance: Ac-LLQLTVWGIKQLQARIL-NH2 [N17, reference compound]
- pIC50 [1, 9]: ~5.00
- pIC50 [1, 10]: ~5.00
- solubility [6]: difficult to get into solution—it precipitates

Substance: Ac-KIEEIESKQKKIENEIARIKKLLQLTVWGIKQLQARIL-NH2 [IQ22N17]
- pIC50 [1, 9]: ~6.00
- pIC50 [1, 10]: ~6.00
- CD minimum at 222 nm [2]: approximately −36,000 deg cm^2 dmol^−1
- θ222 nm [2]: ~−36,000 deg cm^2 dmol^−1
- Melting Temperature ([3]; at 10 μM): below 80 °C
- Melting Temperature [3, 11]: ~76 °C
- Mobs/Mcalc ([4]; determined at 50 μM): 2.73*
- melting point: ~ 76 °C

Substance: Ac-RMKQIEDKIEEIESKQKKIENEIARIKKLLQLTVWDIKQLQARIL-NH2 [IQN17(G572D), reference compound]
- pIC50 [1, 9]: ~4.70
- pIC50 [1, 10]: ~4.70
- θ222 nm [2]: ~−39,000 deg cm^2 dmol^−1

Substance: KQKKIENEIARIKKLLQLTVWGIKWLWARIL [IQ15N17]
- pIC50 [1, 9]: ~5.00
- CD minimum at 222 nm [2]: approximately −27,000 deg cm^2 dmol^−1
- θ222 nm [2]: ~−27,000 deg cm^2 dmol^−1
- thermal stability lower than that of IQ22N17 [3]: about 10 degrees
- Melting Temperature [3, 11]: ~64 °C

Substance: Ac-YGGIKKKEIEAIKKEQEAIKKKIEAIEKEIVQARQLLSGIVQQQNNLLRAIEAQQH-NH2 [IZN26]
- Melting Temperature [3, 11]: ~82 °C

Substance: Ac-RMKQIEDKIEEIESKQKKIENEIARIKKLLQLTVWGIKQLQARIL-NH2 [IQN17]
- pIC50 [7]: 7.10 to 7.70
- pIC50 [5]: ~6.60
- pIC50 [1, 9]: ~6.74
- pIC50 [1, 10]: ~6.74
- θ222 nm [2]: ~−36,000 deg cm^2 dmol^−1
- helicity [2]: fully helical
- Melting Temperature ([3]; at 10 μM): above 100 °C
- Melting Temperature ([3]; concentration not given): above 100 °C
- Melting Temperature [3, 11]: >100 °C
- Mobs/Mcalc [4, 12]: 3.15
- oligomeric state ([4]; at 20 μM): discretely trimeric
- melting point: > 100 °C

Substance: Ac-IKKEIEAIKKEQEAIKKKIEAIEKLLQLTVWGIKQLQARIL-NH2 [IZN17]
- pIC50 [1, 9]: 8.25
- θ222 nm [2]: ~−31,000 deg cm^2 dmol^−1
- helicity [2]: helical
- oligomeric state ([4]; at 20 μM): discretely trimeric
- melting point: > 100 °C
- thermal denaturation temperature compared with IQN17 [8]: ten degrees higher
